Measured values from patent US8618094B2, “Fused substituted aminopyrrolidine derivative” (Daiichi Sankyo Company, Limited, priority 2007, dated 2013).
In brackets after ≈: the same amount, converted by molar mass. Where two headings read alike, the source gives them in different places.

Tests used:
Assay in all cases: Antibacterial activity (MIC), standard method of the Japanese Society of Chemotherapy
Type in all cases: cell-based
S. aureus FDA 209-P = settings: Staphylococcus aureus, FDA209
Experimental: (§1) Antibacterial activity of the compounds of the present invention was measured in accordance with the standard method specified by the Japanese Society of Chemotherapy.

[1] = tested on: M(B). Caterrhalis ATCC25238
Experimental: as §1

S. pneumoniae 104835 = settings: Streptococcus pneumoniae
Experimental: as §1

S. pneumoniae J24 = settings: Streptococcus pneumoniae
Experimental: as §1

E. cloacae 03400 = settings: Enterobacter cloacae
Experimental: as §1

E. coli NIHJ = settings: Escherichia coli
Experimental: as §1

P. aeruginosa PAO1 = settings: Pseudomonas aeruginosa
Experimental: as §1

S. aureus 870307 = settings: Staphylococcus aureus
Experimental: as §1

S. marcescens 10100 = settings: Serratia marcescens
Experimental: as §1

E. faecalis 19433 = settings: Enterococcus faecalis
Experimental: as §1

S. epidermidis 56500 = settings: Staphylococcus epidermidis
Experimental: as §1

[2] = tested on: S. pyogenes JCM5674(ATCC12344); settings: Streptococcus pyogenes
Experimental: as §1

K. pneumoniae TYPE 1 = settings: Klebsiella pneumoniae, TYPE1
Experimental: as §1

H. influenzae ATCC49247 = settings: Haemophilus influenzae
Experimental: as §1

P. mirabilis 08103 = settings: Proteus mirabilis
Experimental: as §1

[3] = M(B). Caterrhalis ATCC25238 (first half of Table 2), read-out: MIC, M(B). Caterrhalis ATCC25238
[4] = H. influenzae ATCC49247 (first half of Table 2), read-out: MIC, H. influenzae ATCC49247
[5] = M(B). Caterrhalis [sic] ATCC49247 (Table 2), read-out: MIC, M(B). Caterrhalis ATCC49247
[6] = ATCC 25238 / ATCC 49247, H. influenzae ATCC25238 as printed (second half of Table 2), read-out: MIC, H. influenzae ATCC25238

Row | Compound | MIC (S. aureus FDA 209-P) [µg/mL] | MIC [1, 3] [µg/mL] | MIC (S. pneumoniae 104835) [µg/mL] | MIC (S. pneumoniae J24) [µg/mL] | MIC (E. cloacae 03400) [µg/mL] | MIC (E. coli NIHJ) [µg/mL] | MIC (P. aeruginosa PAO1) [µg/mL] | MIC (S. aureus 870307) [µg/mL] | MIC (S. marcescens 10100) [µg/mL] | MIC (E. faecalis 19433) [µg/mL] | MIC (S. epidermidis 56500) [µg/mL] | MIC [2] [µg/mL] | MIC (K. pneumoniae TYPE 1) [µg/mL] | MIC (H. influenzae ATCC49247; [4]) [µg/mL] | MIC (P. mirabilis 08103) [µg/mL] | MIC [1, 5] [µg/mL] | MIC (H. influenzae ATCC49247; [6]) [µg/mL]
1 | COc1c(N2CC3=CCCC3(N)C2)c(F)cc2c(=O)c(C(=O)O)cn([C@@H]3C[C@@H]3F)c12 (single isomer, unassigned) [Example 25] | 0.025 (≈ 0.0599 µM) | 0.025 (≈ 0.0599 µM) | 0.39 (≈ 0.934 µM) | 0.05 (≈ 0.12 µM) | 0.012 (≈ 0.0287 µM) | 0.012 (≈ 0.0287 µM) | 0.39 (≈ 0.934 µM) | 0.39 (≈ 0.934 µM) | 0.1 (≈ 0.24 µM) | 0.2 (≈ 0.479 µM) | 0.1 (≈ 0.24 µM) | 0.05 (≈ 0.12 µM) | 0.05 (≈ 0.12 µM) | 0.006 (≈ 0.0144 µM) | 0.025 (≈ 0.0599 µM) | – | –
2 | COc1c(N2CC3(N)CCC4CC43C2)c(F)cc2c(=O)c(C(=O)O)cn([C@@H]3C[C@@H]3F)c12 (single isomer, unassigned) [Example 27] | 0.012 (≈ 0.0278 µM) | 0.05 (≈ 0.116 µM) | 0.2 (≈ 0.464 µM) | 0.025 (≈ 0.0579 µM) | 0.025 (≈ 0.0579 µM) | 0.012 (≈ 0.0278 µM) | 0.78 (≈ 1.81 µM) | 0.2 (≈ 0.464 µM) | 0.2 (≈ 0.464 µM) | 0.1 (≈ 0.232 µM) | 0.05 (≈ 0.116 µM) | 0.05 (≈ 0.116 µM) | 0.1 (≈ 0.232 µM) | 0.006 (≈ 0.0139 µM) | 0.05 (≈ 0.116 µM) | – | –
3 | COc1c(N2C[C@H]3[C@@H](C)C[C@@]3(N)C2)c(F)cc2c(=O)c(C(=O)O)cn([C@@H]3C[C@@H]3F)c12 [Example 2, 7-{(1S,5R,6S)-1-Amino-6-methyl-3-azabicyclo[3.2.0]hept-3-yl}-6-fluoro-1-[(1R,2S)-2-fluorocyclopropyl]-1,4-dihydro-8-methoxy-4-oxoquinoline-3-carboxylic acid] | ≤ 0.003 | 0.025 (≈ 0.0596 µM) | 0.1 (≈ 0.238 µM) | 0.012 (≈ 0.0286 µM) | 0.025 (≈ 0.0596 µM) | 0.025 (≈ 0.0596 µM) | 0.78 (≈ 1.86 µM) | 0.1 (≈ 0.238 µM) | 0.2 (≈ 0.477 µM) | 0.05 (≈ 0.119 µM) | 0.012 (≈ 0.0286 µM) | 0.025 (≈ 0.0596 µM) | 0.1 (≈ 0.238 µM) | 0.006 (≈ 0.0143 µM) | 0.012 (≈ 0.0286 µM) | – | –
4 | COc1c(N2C[C@H]3[C@H](C)C[C@@]3(N)C2)c(F)cc2c(=O)c(C(=O)O)cn([C@@H]3C[C@@H]3F)c12 [Example 5, 7-{(1S,5R,6R)-1-Amino-6-methyl-3-azabicyclo[3.2.0]hept-3-yl}-6-fluoro-1-[(1R,2S)-2-fluorocyclopropyl]-1,4-dihydro-8-methoxy-4-oxoquinoline-3-carboxylic acid] | 0.006 (≈ 0.0143 µM) | 0.05 (≈ 0.119 µM) | 0.2 (≈ 0.477 µM) | 0.025 (≈ 0.0596 µM) | 0.025 (≈ 0.0596 µM) | 0.025 (≈ 0.0596 µM) | 0.78 (≈ 1.86 µM) | 0.2 (≈ 0.477 µM) | 0.2 (≈ 0.477 µM) | 0.1 (≈ 0.238 µM) | 0.025 (≈ 0.0596 µM) | 0.05 (≈ 0.119 µM) | 0.1 (≈ 0.238 µM) | 0.012 (≈ 0.0286 µM) | 0.025 (≈ 0.0596 µM) | – | –
5 | Cc1c(N2C[C@]3(N)CCC[C@]3(F)C2)c(F)cc2c(=O)c(C(=O)O)cn([C@@H]3C[C@@H]3F)c12 [Example 17, 7-[(1R,5S)-1-Amino-5-fluoro-3-azabicyclo[3.3.0]octan-3-yl]-6-fluoro-1-[(1R,2S)-2-fluorocyclopropane]-1,4-dihydro-8-methyl-4-oxoquinoline-3-carboxylic acid] | 0.006 (≈ 0.0142 µM) | 0.006 (≈ 0.0142 µM) | 0.1 (≈ 0.237 µM) | 0.025 (≈ 0.0593 µM) | 0.006 (≈ 0.0142 µM) | ≤ 0.003 | 0.2 (≈ 0.475 µM) | 0.2 (≈ 0.475 µM) | 0.05 (≈ 0.119 µM) | 0.05 (≈ 0.119 µM) | 0.025 (≈ 0.0593 µM) | 0.025 (≈ 0.0593 µM) | 0.012 (≈ 0.0285 µM) | ≤ 0.003 | 0.006 (≈ 0.0142 µM) | – | –
6 | COc1c(N2C[C@@H]3CCCC[C@@]3(N)C2)c(F)cc2c(=O)c(C(=O)O)cn([C@@H]3C[C@@H]3F)c12 [Example 31, 7-[(1S,6S)-1-Amino-8-azabicyclo[4.3.0]nonan-8-yl]-6-fluoro-1-[(1R,2S)-2-fluorocyclopropyl]-8-methoxy-1,4-dihydro-4-oxoquinoline-3-carboxylic acid] | 0.012 (≈ 0.0277 µM) | – | 0.2 (≈ 0.461 µM) | 0.025 (≈ 0.0577 µM) | 0.012 (≈ 0.0277 µM) | 0.006 (≈ 0.0138 µM) | 0.39 (≈ 0.9 µM) | 0.1 (≈ 0.231 µM) | 0.1 (≈ 0.231 µM) | 0.1 (≈ 0.231 µM) | 0.05 (≈ 0.115 µM) | 0.025 (≈ 0.0577 µM) | 0.05 (≈ 0.115 µM) | – | 0.012 (≈ 0.0277 µM) | 0.025 (≈ 0.0577 µM) | 0.012 (≈ 0.0277 µM)
7 | C[C@H]1COc2c(N3C[C@@H]4CCCC[C@@]4(N)C3)c(F)cc3c(=O)c(C(=O)O)cn1c23 [Example 34, 10-[(1S,6S)-1-Amino-8-azabicyclo[4.3.0]nonan-8-yl]-9-fluoro-2,3-dihydro-3-(S)-methyl-7-oxo-7H-pyrido[1,2,3-de][1,4]benzoxazine-6-carboxylic acid] | 0.025 (≈ 0.0623 µM) | – | 0.39 (≈ 0.972 µM) | 0.1 (≈ 0.249 µM) | 0.006 (≈ 0.0149 µM) | 0.006 (≈ 0.0149 µM) | 0.2 (≈ 0.498 µM) | 0.39 (≈ 0.972 µM) | 0.05 (≈ 0.125 µM) | 0.1 (≈ 0.249 µM) | 0.05 (≈ 0.125 µM) | 0.05 (≈ 0.125 µM) | 0.025 (≈ 0.0623 µM) | – | 0.012 (≈ 0.0299 µM) | 0.012 (≈ 0.0299 µM) | 0.006 (≈ 0.0149 µM)
8 | COc1c(N2C[C@@H]3CC=CC[C@@]3(N)C2)c(F)cc2c(=O)c(C(=O)O)cn([C@@H]3C[C@@H]3F)c12 [Example 35, 7-[(1S,6S)-1-Amino-8-azabicyclo[4.3.0]non-3-en-8-yl]-6-fluoro-1-[(1R,2S)-2-fluorocyclopropyl]-1,4-dihydro-8-methoxy-4-oxoquinoline-3-carboxylic acid] | 0.025 (≈ 0.0579 µM) | – | 0.39 (≈ 0.904 µM) | 0.05 (≈ 0.116 µM) | 0.012 (≈ 0.0278 µM) | 0.006 (≈ 0.0139 µM) | 0.39 (≈ 0.904 µM) | 0.2 (≈ 0.464 µM) | 0.1 (≈ 0.232 µM) | 0.2 (≈ 0.464 µM) | 0.05 (≈ 0.116 µM) | 0.05 (≈ 0.116 µM) | 0.05 (≈ 0.116 µM) | – | 0.025 (≈ 0.0579 µM) | 0.025 (≈ 0.0579 µM) | 0.012 (≈ 0.0278 µM)
9 | COc1c(N2C[C@@H]3COCC[C@@]3(N)C2)c(F)cc2c(=O)c(C(=O)O)cn([C@@H]3C[C@@H]3F)c12 [Example 37, 7-[(1S,6S)-1-Amino-4-oxa-8-azabicyclo[4.3.0]nonan-8-yl]-6-fluoro-1-[(1R,2S)-2-fluorocyclopropyl]-1,4-dihydro-8-methoxy-4-oxoquinoline-3-carboxylic acid] | 0.006 (≈ 0.0138 µM) | – | 0.39 (≈ 0.896 µM) | 0.05 (≈ 0.115 µM) | 0.025 (≈ 0.0574 µM) | 0.006 (≈ 0.0138 µM) | 1.56 (≈ 3.58 µM) | 0.05 (≈ 0.115 µM) | 0.2 (≈ 0.459 µM) | 0.1 (≈ 0.23 µM) | 0.012 (≈ 0.0276 µM) | 0.05 (≈ 0.115 µM) | 0.1 (≈ 0.23 µM) | – | 0.05 (≈ 0.115 µM) | 0.025 (≈ 0.0574 µM) | ≤ 0.003
